Results on two compounds are retold here after PMC6731281, “Production of zosteric acid and other sulfated phenolic biochemicals in microbial cell factories” (Nature Communications, 2019).

Holding throughout (type): cell-based
The target of one assay is T1, TALFjo (Flavobacterium johnsoniae, UniProt A5FKY3).
T1 construct: gene Fjoh_1109; co-expressed with rat SULT1A1 in E. coli BL21(DE3) (also in S. cerevisiae); whole growing cells
T1 sequence (A5FKY3 1-506): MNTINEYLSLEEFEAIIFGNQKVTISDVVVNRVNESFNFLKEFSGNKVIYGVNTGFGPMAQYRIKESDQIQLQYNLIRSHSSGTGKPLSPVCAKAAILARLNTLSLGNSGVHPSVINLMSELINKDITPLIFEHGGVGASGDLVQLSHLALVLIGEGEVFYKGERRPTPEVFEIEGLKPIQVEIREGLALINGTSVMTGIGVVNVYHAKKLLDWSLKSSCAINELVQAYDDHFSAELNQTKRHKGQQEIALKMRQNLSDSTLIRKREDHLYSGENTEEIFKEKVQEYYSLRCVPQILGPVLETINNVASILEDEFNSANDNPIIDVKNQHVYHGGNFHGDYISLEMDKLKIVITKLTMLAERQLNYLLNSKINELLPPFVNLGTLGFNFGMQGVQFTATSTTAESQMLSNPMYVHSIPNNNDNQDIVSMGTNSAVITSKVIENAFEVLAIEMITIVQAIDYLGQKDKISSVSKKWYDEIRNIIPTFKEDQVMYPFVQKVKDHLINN
The experiment in a line: HPLC of p-coumaric and zosteric acid in culture of E. coli co-expressing TAL and SULT1A1. The conditions noted are these: with or without 2 mM tyrosine; M9, 0.2% glucose, 24 h.

For the next assay, the target named is T2, TALRca (Rhodobacter capsulatus, UniProt D5AR26).
T2 construct: gene hutH; co-expressed with rat SULT1A1 in E. coli BL21(DE3); whole growing cells
T2 sequence (D5AR26 1-531): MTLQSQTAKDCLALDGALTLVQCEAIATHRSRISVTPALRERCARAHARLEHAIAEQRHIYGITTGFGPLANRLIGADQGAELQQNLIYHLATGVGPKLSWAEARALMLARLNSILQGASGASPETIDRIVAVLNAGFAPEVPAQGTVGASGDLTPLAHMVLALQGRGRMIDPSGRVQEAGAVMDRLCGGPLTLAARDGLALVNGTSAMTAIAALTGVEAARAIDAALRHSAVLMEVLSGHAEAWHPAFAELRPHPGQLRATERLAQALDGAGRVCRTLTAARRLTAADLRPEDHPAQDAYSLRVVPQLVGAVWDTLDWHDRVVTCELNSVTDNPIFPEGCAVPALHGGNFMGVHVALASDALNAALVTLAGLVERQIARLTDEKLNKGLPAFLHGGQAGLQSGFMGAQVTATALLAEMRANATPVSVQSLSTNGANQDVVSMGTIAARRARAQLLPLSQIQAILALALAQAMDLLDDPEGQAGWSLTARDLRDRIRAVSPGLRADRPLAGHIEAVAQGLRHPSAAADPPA
The assay is described as above. The note with it: with or without 2 mM tyrosine; M9, 0.2% glucose, 24 h.

In a further assay the target is T3, TALRsp (Cereibacter sphaeroides, UniProt Q3IWB0).
T3 construct: gene hutH; co-expressed with rat SULT1A1 in E. coli BL21(DE3); whole growing cells
T3 sequence (Q3IWB0 1-523): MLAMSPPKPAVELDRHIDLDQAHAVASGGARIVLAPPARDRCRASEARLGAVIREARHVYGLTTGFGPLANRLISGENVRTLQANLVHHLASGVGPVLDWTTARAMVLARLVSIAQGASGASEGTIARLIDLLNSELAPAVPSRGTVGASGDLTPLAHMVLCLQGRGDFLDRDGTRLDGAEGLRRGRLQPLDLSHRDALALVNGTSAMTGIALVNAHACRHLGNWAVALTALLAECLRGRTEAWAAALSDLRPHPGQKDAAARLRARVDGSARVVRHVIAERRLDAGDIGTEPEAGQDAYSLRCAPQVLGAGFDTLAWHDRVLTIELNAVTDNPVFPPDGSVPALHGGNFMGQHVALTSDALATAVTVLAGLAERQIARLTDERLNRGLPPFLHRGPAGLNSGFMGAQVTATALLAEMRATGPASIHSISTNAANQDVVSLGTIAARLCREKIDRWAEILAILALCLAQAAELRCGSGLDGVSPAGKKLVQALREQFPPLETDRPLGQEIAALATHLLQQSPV
The description is as above. The conditions noted are these: with or without 2 mM tyrosine; M9, 0.2% glucose, 24 h.

A further assay deals with T4, SULT1A1Rno (Rattus norvegicus, UniProt P17988).
T4 construct: gene Sult1a1; codon-optimized synthetic gene in pETDuet-1, expressed in E. coli KRX or BL21(DE3) (also in S. cerevisiae); whole growing cells
As to the kind of experiment: HPLC of supernatant of E. coli expressing the enzyme; product zosteric acid matched synthetic standard. The conditions noted are these: intracellular PAPS as donor; 100 µM substrate in screen; M9, 37 °C, 24 h.

T4 sequence (P17988 whole entry): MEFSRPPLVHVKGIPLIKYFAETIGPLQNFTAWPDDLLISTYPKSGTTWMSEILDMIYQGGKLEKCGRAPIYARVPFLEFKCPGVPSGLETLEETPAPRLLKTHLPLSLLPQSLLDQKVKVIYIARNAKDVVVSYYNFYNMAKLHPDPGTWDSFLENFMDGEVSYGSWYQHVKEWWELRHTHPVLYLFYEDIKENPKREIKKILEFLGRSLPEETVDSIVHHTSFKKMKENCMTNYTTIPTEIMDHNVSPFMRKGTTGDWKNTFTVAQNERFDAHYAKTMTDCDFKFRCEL

Consider `N[C@@H](Cc1ccc(O)cc1)C(=O)O` [tyrosine], for which the “HPLC of p-coumaric and zosteric acid in culture of E. coli co-expressing TAL and” value at TALFjo, on TALRca and on TALRsp was “expression of a TAL-encoding gene was required for the production of pHCA” throughout.

On to `O=C(O)/C=C/c1ccc(O)cc1` [p-coumaric acid], for which the “HPLC of supernatant of E. coli expressing the enzyme; product zosteric acid matc” value at SULT1A1Rno is recorded as “SULT1A1Rno showed the greatest production of zosteric acid from p-coumaric acid”.
